Common to all, as to assay: relative viability (nuclei count vs DMSO), 5 days (fraction); higher = more cells survive
Compound in assay [1]: Nc1ccn([C@@H]2O[C@H](CO)[C@@H](O)C2(F)F)c(=O)n1 [Gemcitabine] + CC(=O)c1c(C)c2cnc(Nc3ccc(N4CCNCC4)cn3)nc2n(C2CCCC2)c1=O [Palbociclib] (partner 0.5 µM)
The essentials:
(§1)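 Lung cancer cell lines in 1536-well plates got either a single drug or a fixed anchor-drug dose together with five library-drug doses (not always all listed) in √10 steps, by pin tool, on the day after seeding. Nuclei were counted after 5 days, and relative viability is the treated-to-vehicle ratio of nuclei counts. Values are medians of duplicate plates.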

Compound in assay [2]: Nc1ccn([C@@H]2O[C@H](CO)[C@@H](O)C2(F)F)c(=O)n1 [Gemcitabine] + CC(C)C[C@H](NC(=O)[C@H](Cc1ccccc1)NC(=O)c1cnccn1)B(O)O [Bortezomib] (partner 0.002 µM)
The method in brief: as §1

Compound in assay [3]: Nc1ccn([C@@H]2O[C@H](CO)[C@@H](O)C2(F)F)c(=O)n1 [Gemcitabine] + Cc1nc(Nc2ncc(C(=O)Nc3c(C)cccc3Cl)s2)cc(N2CCN(CCO)CC2)n1 [Dasatinib] (partner 0.075 µM)
The essentials:
as §1

Compound in assay [4]: Nc1ccn([C@@H]2O[C@H](CO)[C@@H](O)C2(F)F)c(=O)n1 [Gemcitabine] + Cc1nc(NC(=O)N2CCC[C@H]2C(N)=O)sc1-c1ccnc(C(C)(C)C(F)(F)F)c1 [Alpelisib] (partner 2 µM)
The method in brief: as §1

As to NCI-H1651, the relative viability in assay [1] (first compound 0.001 µM) came to 0.509; in assay [1] (first compound 0.003162 µM), 0.496; in assay [1] (first compound 0.01 µM) it was 0.536; in assay [1] (first compound 0.03162 µM), 0.311; in assay [1] (first compound 0.1 µM) it was 0.136; in assay [2] (first compound 0.001 µM), 0.988. The relative viability in assay [2] (first compound 0.003162 µM) worked out at 0.89; in assay [2] (first compound 0.01 µM) it was 0.919; in assay [2] (first compound 0.03162 µM) it was 0.885; in assay [2] (first compound 0.1 µM), 0.173; in assay [3] (first compound 0.001 µM), 0.412; in assay [3] (first compound 0.003162 µM) it was 0.495. Besides, the relative viability came to 0.257 in assay [3] (first compound 0.01 µM); 0.0946 in assay [3] (first compound 0.03162 µM); 0.0687 in assay [3] (first compound 0.1 µM); 0.923 in assay [4] (first compound 0.001 µM); 0.967 in assay [4] (first compound 0.003162 µM); 0.889 in assay [4] (first compound 0.01 µM). For the same cell line, the figures for the relative viability in assay [4] (first compound 0.03162 µM) and in assay [4] (first compound 0.1 µM) were 0.159 and 0.0819, respectively.
Take LCLC-103H: the relative viability in assay [1] (first compound 0.001 µM) turned out to be 0.491; in assay [1] (first compound 0.003162 µM) it was 0.504; in assay [1] (first compound 0.01 µM) it was 0.497; in assay [1] (first compound 0.03162 µM), 0.42; in assay [1] (first compound 0.1 µM), 0.406; in assay [2] (first compound 0.001 µM), 1.1. For the same cell line, the relative viability was 1.04 in assay [2] (first compound 0.003162 µM); 1.05 in assay [2] (first compound 0.01 µM); 1.11 in assay [2] (first compound 0.03162 µM); 0.934 in assay [2] (first compound 0.1 µM); 0.54 in assay [3] (first compound 0.001 µM); 0.53 in assay [3] (first compound 0.003162 µM). For the same cell line, the relative viability in assay [3] (first compound 0.01 µM) was 0.502; in assay [3] (first compound 0.03162 µM) it was 0.179; in assay [3] (first compound 0.1 µM) it was 0.223; in assay [4] (first compound 0.001 µM), 1; in assay [4] (first compound 0.003162 µM), 0.878; in assay [4] (first compound 0.01 µM) it was 0.949. For the same cell line, the relative viability is 1 in assay [4] (first compound 0.03162 µM) and 0.272 in assay [4] (first compound 0.1 µM).
Turning to NCI-H1666, the relative viability in assay [1] (first compound 0.001 µM) amounted to 0.603; in assay [1] (first compound 0.003162 µM) it was 0.664; in assay [1] (first compound 0.01 µM), 0.651; in assay [1] (first compound 0.03162 µM) it was 0.596; in assay [1] (first compound 0.1 µM), 0.578; in assay [2] (first compound 0.001 µM), 0.739. The relative viability is 0.979 in assay [2] (first compound 0.003162 µM); 0.567 in assay [2] (first compound 0.01 µM); 0.24 in assay [2] (first compound 0.03162 µM); 0.225 in assay [2] (first compound 0.1 µM); 0.797 in assay [3] (first compound 0.001 µM); 0.796 in assay [3] (first compound 0.003162 µM). The relative viability in assay [3] (first compound 0.01 µM) was 0.715; in assay [3] (first compound 0.03162 µM) it was 0.52; in assay [3] (first compound 0.1 µM), 0.375; in assay [4] (first compound 0.001 µM), 0.863; in assay [4] (first compound 0.003162 µM) it was 0.92; in assay [4] (first compound 0.01 µM), 0.364. The relative viability in assay [4] (first compound 0.03162 µM) stood at 0.232; in assay [4] (first compound 0.1 µM) it was 0.279.
Consider NCI-H1734, for which the relative viability in assay [1] (first compound 0.001 µM) was determined as 0.318; in assay [1] (first compound 0.003162 µM) it was 0.293; in assay [1] (first compound 0.01 µM), 0.174; in assay [1] (first compound 0.03162 µM), 0.149; in assay [1] (first compound 0.1 µM), 0.131; in assay [2] (first compound 0.001 µM) it was 1.08. Also, the relative viability in assay [2] (first compound 0.003162 µM) amounted to 0.862; in assay [2] (first compound 0.01 µM) it was 0.199; in assay [2] (first compound 0.03162 µM) it was 0.157; in assay [2] (first compound 0.1 µM), 0.102; in assay [3] (first compound 0.001 µM) it was 0.385; in assay [3] (first compound 0.003162 µM), 0.354. The relative viability in assay [3] (first compound 0.01 µM) worked out at 0.111; in assay [3] (first compound 0.03162 µM), 0.0942; in assay [3] (first compound 0.1 µM), 0.091; in assay [4] (first compound 0.001 µM) it was 0.567; in assay [4] (first compound 0.003162 µM), 0.627; in assay [4] (first compound 0.01 µM) it was 0.213. For the same cell line, the relative viability worked out at 0.153 in assay [4] (first compound 0.03162 µM) and 0.0967 in assay [4] (first compound 0.1 µM).

For the origin of these results see the supplement of paper PMC10307832.
